EC50 and IC50 data for 22 compounds are collected here from ChEMBL document CHEMBL1139154, “Inhibitors of HCV NS5B polymerase: synthesis and structure-activity relationships of unsymmetrical 1-hydroxy-4,4-dialkyl-3-oxo-3,4-dihydronaphthalene benzothiadiazine derivatives” (Bioorg Med Chem Lett, 2007).

Test [1] concerns Hepatitis C virus. The test is described as follows: Antiviral activity against HCV 1a replicon in presence of fetal calf serum. Format: functional, organism-based, Hepacivirus hominis. To be noted: subtype 1a.
Test [2] can be described thus: Inhibition of HCV 1a NS5B polymerase. On the set-up: species or system Hepatitis C virus subtype 1a.
The subject of test [3] is Hepatitis C virus. The test is described as follows: Inhibition of HCV 1b NS5B polymerase. More on the design: species or system Hepatitis C virus subtype 1b.

Structures are written as SMILES. A value given as a limit tells only on which side of the number the result lay.

In general, EC50 refers to the midpoint of the concentration-response curve. The term IC50 denotes the concentration at which inhibition is half-maximal. High values mean a need for much substance, low ones inhibition by little substance. In the case of `C=CCC1(C)C(=O)C(C2=NS(=O)(=O)c3cc(NS(C)(=O)=O)ccc3N2)=C(O)c2ccccc21` (stereo not drawn), the EC50 in the test with Hepatitis C virus [1] was 690 nM. Besides, the IC50 was determined as 18 nM in test [2] and 225 nM in the test with Hepatitis C virus [3].
In the case of `CC1(CC=C2CCC2)C(=O)C(C2=NS(=O)(=O)c3cc(NS(C)(=O)=O)ccc3N2)=C(O)c2ccccc21` (stereo not drawn), the half-maximal effective concentration (EC50) in the test with Hepatitis C virus [1] turned out to be 1190 nM. Moreover, the IC50 in test [2] was 87 nM; with Hepatitis C virus [3], 425 nM.
As for `CC(C)=CC[C@@]1(C)C(=O)C(C2=NS(=O)(=O)c3cc(NS(C)(=O)=O)ccc3N2)=C(O)c2ccccc21`, the EC50 in the test on Hepatitis C virus [1] stood at 134 nM. In addition, the IC50 in test [2] amounted to 19 nM; in the test on Hepatitis C virus [3], 32 nM.
The corresponding values for `CC(C)(Cl)CCC1(C)C(=O)C(C2=NS(=O)(=O)c3cc(NS(C)(=O)=O)ccc3N2)=C(O)c2ccccc21` (stereo not drawn) are 2170 nM, 39 nM and 70 nM.
Turning to `CC(C)CCC1(C)C(=O)C(C2=NS(=O)(=O)c3cc(NS(C)(=O)=O)ccc3N2)=C(O)c2ccccc21` (stereo not drawn), in the test with Hepatitis C virus [1], the EC50 was 17 nM. The IC50 in test [2] was determined as 4 nM; with Hepatitis C virus [3] it was 7 nM.
Compound `CC1(CC(O)CO)C(=O)C(C2=NS(=O)(=O)c3cc(NS(C)(=O)=O)ccc3N2)=C(O)c2ccccc21` (stereo not drawn) displayed an IC50 in test [2] of 450 nM.
`CC(C)=CCC1(C)C(=O)C(C2=NS(=O)(=O)c3cc(NS(C)(=O)=O)ccc3N2)=C(O)c2ccccc21` (stereo not drawn): in the test with Hepatitis C virus [1], the EC50 was 237 nM. In addition, the figures for the IC50 (in test [2]; in the test with Hepatitis C virus [3]) were 38 nM and 147 nM, respectively.
In test [2], `CC1(C)C(=O)C(C2=NS(=O)(=O)c3cc(NS(C)(=O)=O)ccc3N2)=C(O)c2ccccc21` yielded an IC50 of 933 nM.
In the case of `CC1(CCCc2ccccc2)C(=O)C(C2=NS(=O)(=O)c3cc(NS(C)(=O)=O)ccc3N2)=C(O)c2ccccc21` (stereo not drawn), the figures for the IC50 (in test [2]; in the test with Hepatitis C virus [3]) were 115 nM and 280 nM, respectively.
The corresponding values for `CC1(C/C=C/c2ccccc2)C(=O)C(C2=NS(=O)(=O)c3cc(NS(C)(=O)=O)ccc3N2)=C(O)c2ccccc21` (stereo not drawn) are 460 nM and 1850 nM.
Consider `CC1(CCC2CCCCC2)C(=O)C(C2=NS(=O)(=O)c3cc(NS(C)(=O)=O)ccc3N2)=C(O)c2ccccc21` (stereo not drawn), for which the EC50 in the test with Hepatitis C virus [1] turned out to be 2710 nM. Further, the IC50 in test [2] was determined as 57 nM; with Hepatitis C virus [3], 194 nM.
As for `CC1(CC=C2CCCC2)C(=O)C(C2=NS(=O)(=O)c3cc(NS(C)(=O)=O)ccc3N2)=C(O)c2ccccc21` (stereo not drawn), the EC50 in the test on Hepatitis C virus [1] was found to be 1490 nM. In addition, the figures for the IC50 (in test [2]; with Hepatitis C virus [3]) were 93 nM and 550 nM, respectively.
The corresponding values for `CC1(CCC2CCC2)C(=O)C(C2=NS(=O)(=O)c3cc(NS(C)(=O)=O)ccc3N2)=C(O)c2ccccc21` (stereo not drawn) are 190 nM, 16 nM and 36 nM.
Take `CC(C)=CC[C@]1(C)C(=O)C(C2=NS(=O)(=O)c3cc(NS(C)(=O)=O)ccc3N2)=C(O)c2ccccc21`: in test [2], inhibition was half-maximal at 702 nM (IC50). In other words, the sub-micromolar range.
With `CC1(CCC2CCCC2)C(=O)C(C2=NS(=O)(=O)c3cc(NS(C)(=O)=O)ccc3N2)=C(O)c2ccccc21` (stereo not drawn), the EC50 in the test with Hepatitis C virus [1] is 320 nM. Besides, the IC50 in test [2] was determined as 32 nM; with Hepatitis C virus [3], 70 nM.
Taken in the same sequence, the figures for `CCOC(=O)/C=C/CC1(C)C(=O)C(C2=NS(=O)(=O)c3cc(NS(C)(=O)=O)ccc3N2)=C(O)c2ccccc21` (stereo not drawn) were over 10000 nM, 1080 nM and 5870 nM.
On to `CC1(CC=C2CCCCC2)C(=O)C(C2=NS(=O)(=O)c3cc(NS(C)(=O)=O)ccc3N2)=C(O)c2ccccc21` (stereo not drawn), for which the IC50 in test [2] stood at 195 nM; with Hepatitis C virus [3], 910 nM.
For `CC1(CC2CC2)C(=O)C(C2=NS(=O)(=O)c3cc(NS(C)(=O)=O)ccc3N2)=C(O)c2ccccc21` (stereo not drawn), the EC50 in the test with Hepatitis C virus [1] came out at 160 nM. Moreover, the IC50 was found to be 21 nM in test [2] and 40 nM with Hepatitis C virus [3].
In the case of `CC1(CCCO)C(=O)C(C2=NS(=O)(=O)c3cc(NS(C)(=O)=O)ccc3N2)=C(O)c2ccccc21` (stereo not drawn), in the test with Hepatitis C virus [1], the EC50 was found to be 860 nM.
For `CC(C)CCC1(CCC(C)C)C(=O)C(C2=NS(=O)(=O)c3cc(NS(C)(=O)=O)ccc3N2)=C(O)c2ccccc21`, in the test on Hepatitis C virus [1], the EC50 was 423 nM. For the same compound, the IC50 in test [2] is 68 nM.
Take `CCCC1(C)C(=O)C(C2=NS(=O)(=O)c3cc(NS(C)(=O)=O)ccc3N2)=C(O)c2ccccc21` (stereo not drawn): in the test with Hepatitis C virus [1], the EC50 was 184 nM. This compound also yielded an IC50 in test [2] of 20 nM.
On to `CC(C)(O)CCC1(C)C(=O)C(C2=NS(=O)(=O)c3cc(NS(C)(=O)=O)ccc3N2)=C(O)c2ccccc21` (stereo not drawn), for which the EC50 in the test with Hepatitis C virus [1] worked out at 8000 nM. In addition, the values for the half-maximal inhibitory concentration (IC50) (in test [2]; in the test on Hepatitis C virus [3]) were 43 nM and 193 nM, respectively.
